Experimental data: the OligoGym collection
Values joined by “and” are separate entries in the source; they are usually repeats but may differ in a detail not shown here. Identical values can stand only once. HELM strings list units from the 5' end as sugar, base in round brackets, then linkage (d deoxyribose, r ribose, m 2'-O-methyl, p phosphodiester). Methylation of C is not given here. [moe] = 2'-O-(2-methoxyethyl) (MOE); [cEt] = constrained ethyl (cEt); [sp] = phosphorothioate linkage

Biological target: HBV
Settings: ASO

Substance | target mRNA inhibition (HepG2, 0.07 µM) | other results
RNA1{[moe](T)[sp].[moe](T)[sp].d(A)[sp].d(T)[sp].d(G)[sp].d(C)[sp].d(C)[sp].d(T)[sp].d(A)[sp].d(C)[sp].d(A)[sp].[moe](G)[sp].[moe](C)[sp].[moe](C)[sp].[moe](T)[sp].[moe](C)}$$$$V2.0 | 44% and 46% | –
RNA1{[moe](A)[sp].[cEt](A)[sp].[cEt](G)[sp].d(T)[sp].d(C)[sp].d(C)[sp].d(A)[sp].d(C)[sp].d(C)[sp].d(A)[sp].d(C)[sp].d(G)[sp].d(A)[sp].[cEt](G)[sp].[cEt](T)[sp].[moe](C)}$$$$V2.0 | 59% and 46% | –
RNA1{[moe](A)[sp].[moe](G)[sp].d(G)[sp].d(A)[sp].d(G)[sp].d(T)[sp].d(T)[sp].d(C)[sp].d(C)[sp].d(G)[sp].d(C)[sp].[moe](A)[sp].[moe](G)[sp].[moe](T)[sp].[moe](A)[sp].[moe](T)}$$$$V2.0 | 50% and 37% | –
RNA1{[moe](A)[sp].[cEt](G)[sp].d(G)[sp].d(T)[sp].d(G)[sp].d(A)[sp].d(A)[sp].d(G)[sp].d(C)[sp].d(G)[sp].d(A)[sp].d(A)[sp].[cEt](G)[sp].[moe](T)[sp].[cEt](G)[sp].[moe](C)}$$$$V2.0 | 78% and 85% | target mRNA inhibition (HepG2, 0.0092593 µM): 12%; target mRNA inhibition (HepG2, 0.0277778 µM): 36%; target mRNA inhibition (HepG2, 0.0833333 µM): 67%; target mRNA inhibition (HepG2, 0.25 µM): 80%
RNA1{[moe](T)[sp].[moe](A)[sp].[moe](T)[sp].[moe](G)[sp].[moe](C)[sp].d(C)[sp].d(T)[sp].d(A)[sp].d(C)[sp].d(A)[sp].d(G)[sp].d(C)[sp].d(C)[sp].d(T)[sp].[moe](C)[sp].[moe](C)}$$$$V2.0 | 47% and 42% | –
RNA1{[moe](A)[sp].[moe](C)[sp].[moe](T)[sp].[moe](A)[sp].d(G)[sp].d(T)[sp].d(A)[sp].d(A)[sp].d(A)[sp].d(C)[sp].d(T)[sp].d(G)[sp].d(A)[sp].[moe](G)[sp].[moe](C)[sp].[moe](C)[sp].[moe](A)}$$$$V2.0 | 62% and 58% | –
RNA1{[moe](A)[sp].[moe](G)[sp].[moe](T)[sp].[moe](T)[sp].[moe](C)[sp].d(C)[sp].d(G)[sp].d(C)[sp].d(A)[sp].d(G)[sp].d(T)[sp].d(A)[sp].d(T)[sp].d(G)[sp].[moe](G)[sp].[moe](A)[sp].[moe](T)}$$$$V2.0 | 56% and 49% | –
RNA1{[moe](A)[sp].[moe](A)[sp].[moe](G)[sp].[moe](C)[sp].[cEt](G)[sp].[cEt](A)[sp].d(A)[sp].d(G)[sp].d(T)[sp].d(G)[sp].d(C)[sp].d(A)[sp].d(C)[sp].[moe](A)[sp].[moe](C)[sp].[moe](G)[sp].[moe](G)}$$$$V2.0 | – | target mRNA inhibition (HepG2, 0.009375 µM): 26%; target mRNA inhibition (HepG2, 0.01875 µM): 29%; target mRNA inhibition (HepG2, 0.0375 µM): 30%; target mRNA inhibition (HepG2, 0.075 µM): 64%; target mRNA inhibition (HepG2, 0.15 µM): 80%; target mRNA inhibition (HepG2, 0.3 µM): 91%
RNA1{[moe](C)[sp].[moe](T)[sp].[moe](A)[sp].[moe](G)[sp].[moe](T)[sp].d(A)[sp].d(A)[sp].d(A)[sp].d(C)[sp].d(T)[sp].d(G)[sp].d(A)[sp].d(G)[sp].d(C)[sp].[moe](C)[sp].[moe](A)}$$$$V2.0 | 71% and 63% | –
RNA1{[moe](T)[sp].[cEt](G)[sp].[cEt](A)[sp].d(G)[sp].d(A)[sp].d(G)[sp].d(A)[sp].d(A)[sp].d(G)[sp].d(T)[sp].d(C)[sp].d(C)[sp].d(A)[sp].[cEt](C)[sp].[cEt](C)[sp].[moe](A)}$$$$V2.0 | 53% and 49% | –
RNA1{[moe](A)[sp].[cEt](G)[sp].d(A)[sp].d(A)[sp].d(G)[sp].d(T)[sp].d(C)[sp].d(C)[sp].d(A)[sp].d(C)[sp].d(C)[sp].d(A)[sp].[cEt](C)[sp].[moe](G)[sp].[cEt](A)[sp].[moe](G)}$$$$V2.0 | 55% and 37% | –
RNA1{[moe](A)[sp].[cEt](C)[sp].[cEt](T)[sp].d(G)[sp].d(A)[sp].d(A)[sp].d(C)[sp].d(A)[sp].d(A)[sp].d(A)[sp].d(T)[sp].d(G)[sp].d(G)[sp].[cEt](C)[sp].[cEt](A)[sp].[moe](C)}$$$$V2.0 | 67% and 64% | –
